Experimental data as given in PubChem BioAssay (NCI).
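Protocol summary: plate cells (96-well), add compound at 5 concentrations, incubate 48 h, interpolate endpoints linearly. GI50 is the concentration that inhibits growth by half. The concentration for full growth arrest is given as TGI.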

Columns and labels:
Experiment in all cases: inhibition of tumour cell growth, NCI panel, 48 h
[1] = system: 786-0 renal
[2] = system: A498 renal
[3] = system: A549 NSCLC
[4] = system: ACHN renal
[5] = system: BT-549 breast
[6] = system: CAKI-1 renal
[7] = system: CCRF-CEM leukemia
[8] = system: COLO 205 colon
[9] = system: DU-145 prostate
[10] = system: HCC-2998 colon
[11] = system: HCT-116 colon
[12] = system: HCT-15 colon
[13] = system: HL-60(TB) leukemia
[14] = system: HOP-62 NSCLC
[15] = system: HOP-92 NSCLC
[16] = system: HS 578T breast
[17] = system: HT29 colon
[18] = system: IGROV1 ovarian
[19] = system: K-562 leukemia
[20] = system: KM12 colon
[21] = system: LOX IMVI melanoma
[22] = system: M14 melanoma
[23] = system: MALME-3M melanoma
[24] = system: MCF7 breast
[25] = system: MDA-MB-231 breast
[26] = system: MDA-MB-435
[27] = system: MOLT-4 leukemia
[28] = system: NCI-H23 lung
[29] = system: NCI-H460 lung
[30] = system: NCI-H522 lung
[31] = system: NCI/ADR-RES ovarian
[32] = system: OVCAR-3 ovarian
[33] = system: OVCAR-5 ovarian
[34] = system: OVCAR-8 ovarian
[35] = system: PC-3 prostate
[36] = system: RXF 393 renal
[37] = system: SF-268 CNS
[38] = system: SF-295 CNS
[39] = system: SF-539 CNS
[40] = system: SK-MEL-2 melanoma
[41] = system: SK-MEL-28 melanoma
[42] = system: SK-MEL-5 melanoma
[43] = system: SK-OV-3 ovarian
[44] = system: SN12C renal
[45] = system: SNB-19 CNS
[46] = system: SNB-75 CNS
[47] = system: SR leukemia
[48] = system: SW-620 colon
[49] = system: T-47D breast
[50] = system: TK-10 renal
[51] = system: U251 CNS
[52] = system: UACC-62 melanoma

**Q.** Which results are given for `COc1cc2c3c(cccc3c1)C(=O)N(CCN1CCCC1)C2=O`?
**A.** GI50 [1]: 2.92 µM; TGI [1]: > 100 µM; GI50 [2]: 1.96 µM; TGI [2]: 3.69 µM; GI50 [3]: 1.91 µM; TGI [3]: 5.31 µM; GI50 [4]: 0.764 µM; TGI [4]: > 100 µM; GI50 [5]: 2.95 µM; TGI [5]: 8.33 µM; GI50 [6]: 2.56 µM; TGI [6]: > 100 µM; GI50 [7]: 2.86 µM; TGI [7]: > 100 µM; GI50 [8]: 1.48 µM; TGI [8]: 3.28 µM; GI50 [9]: 2.13 µM; TGI [9]: 5.97 µM; GI50 [10]: 2.63 µM; TGI [10]: 7.19 µM; GI50 [11]: 0.753 µM; TGI [11]: > 100 µM; GI50 [12]: 2.63 µM; TGI [12]: > 100 µM; GI50 [13]: 3.65 µM; TGI [13]: 61 µM; GI50 [14]: 2.1 µM; TGI [14]: 5.27 µM; GI50 [15]: 1.55 µM; TGI [15]: 4.98 µM; GI50 [16]: 3.98 µM; TGI [16]: 13 µM; GI50 [17]: 1.79 µM; TGI [17]: 20.2 µM; GI50 [18]: 2.66 µM; TGI [18]: 6.78 µM; GI50 [19]: 3.62 µM; TGI [19]: > 100 µM; GI50 [20]: 2.88 µM; TGI [20]: > 100 µM; GI50 [21]: 1.68 µM; TGI [21]: 4.42 µM; GI50 [22]: 2.38 µM; TGI [22]: 5.66 µM; GI50 [23]: 1.88 µM; TGI [23]: 4.1 µM; GI50 [24]: 1.71 µM; TGI [24]: 20.4 µM; GI50 [25]: 2.46 µM; TGI [25]: 10.2 µM; GI50 [26]: 2.81 µM; TGI [26]: 8.25 µM; GI50 [27]: 3.09 µM; TGI [27]: > 100 µM; GI50 [28]: 2.49 µM; TGI [28]: 8.21 µM; GI50 [29]: 2.26 µM; TGI [29]: 11.3 µM; GI50 [30]: 2.3 µM; TGI [30]: 5.78 µM; GI50 [31]: 2.25 µM; TGI [31]: 8.04 µM; GI50 [32]: 2.3 µM; TGI [32]: 6.29 µM; GI50 [33]: 4.12 µM; TGI [33]: > 100 µM; GI50 [34]: 1.66 µM; TGI [34]: > 100 µM; GI50 [35]: 2.91 µM; TGI [35]: 11.9 µM; GI50 [36]: 1.41 µM; TGI [36]: 3.54 µM; GI50 [37]: 2.48 µM; TGI [37]: 9.06 µM; GI50 [38]: 2.46 µM; TGI [38]: 6.44 µM; GI50 [39]: 1.98 µM; TGI [39]: 5.14 µM; GI50 [40]: 3.14 µM; TGI [40]: 6.61 µM; GI50 [41]: 1.84 µM; TGI [41]: 3.43 µM; GI50 [42]: 1.56 µM; TGI [42]: 3.06 µM; GI50 [43]: 3.27 µM; TGI [43]: 14.5 µM; GI50 [44]: 2.41 µM; TGI [44]: 78.5 µM; GI50 [45]: 2.83 µM; TGI [45]: 58.6 µM; GI50 [46]: 1.63 µM; TGI [46]: 3.65 µM; GI50 [47]: 1.47 µM; TGI [47]: > 100 µM; GI50 [48]: 2.04 µM; TGI [48]: 15.7 µM; GI50 [49]: 2.5 µM; TGI [49]: 8.76 µM; GI50 [50]: 24.8 µM; TGI [50]: > 100 µM; GI50 [51]: 2.75 µM; TGI [51]: 9.59 µM; GI50 [52]: 1.79 µM; TGI [52]: 3.71 µM
